Here are results for one compound from patent US12156860B2, “Disorders implicating PUFA oxidation” (BioJiva LLC, priority 2011, dated 2024).

A short description of series [1]: Kinetics of O2 consumption during AMVN-initiated oxidation in chlorobenzene (glass capillary microvolumeter). The series is classed as physicochemical. The method, then:
FIG. 7. Kinetics of O2 consumption accompanied the oxidation of 0.71 M LA (plots 1 and 2) and 0.71 M D2-LA (plot 3) in chlorobenzene initiated by 40 mM AMVN at 37° C. Plot 2-0.23 mM HPMC was added to 0.71 M LA.
The kinetics of oxygen consumption during the oxidation of LA and D2-LA was studied with a glass capillary microvolumeter (FIG. 7). The rate of oxidation, ROX, was measured as a slope of [O2] traces. The rate of initiation, RIN, was determined by the inhibitor method with HPMC (“6-hydroxy-2,2,5,7,8-pentamethylbenzochroman”) as a reference inhibitor. RIN was calculated from the induction period of inhibited oxidation, tIND: RIN=2·[HPMC]/tIND. […] When the process was inhibited by 0.23 mM chain-breaking antioxidant HPMC, the duration of the induction period, tIND, was about 48 min, with the RIN value of around 0.16×10^−6 M/s. […] The latter precludes a direct determination of RIN. […] An estimated kinetic isotope effect (“KIE”), from comparison of ROX for LA and D2-LA, was around 6.1×10^−6/0.18×10^−6≈35. A similar KIE was determined during the oxidation of LA and 11,11-d2-LA in Triton X-100 aqueous micelles (data not shown). For comparative purposes, the theoretical KIE is 6.9 at 25° C. See Carpenter, “Determination of Organic Reaction Mechanisms” (John Wiley & Sons, 1984), p. 89.

The nature of series [2]: Oxidation of mixtures of LA and D2-LA in chlorobenzene. It counts as physicochemical. As for the experimental part:
FIG. 8. Dependence of the rate of oxidation of the mixture of LA and D2-LA in chlorobenzene solution on mixture composition. Conditions: [LA]+[11,11-d2-LA]=0.775 M; [AMVN]=0.0217 M; 37° C. RIN=(1.10±0.08)×10^−7 M/sec.
To simulate the likely in vivo conditions, the kinetics of the oxidation of the mixtures of D2-LA and LA were studied (FIG. 8). In the experiments, the concentration of LA plus 11,11-d2-LA was 0.775 M; the concentration of AMVN was 0.0217 M; and the reactions were carried out at 37° C. The results afforded an RIN of 1.10±0.08×10^−7 M/sec.

Another series relates to Q-less coq3 yeast. Nature of the series: Yeast incubated with different ratios of H- and D-PUFA, plate dilution. It counts as cell-based, S. cerevisiae. The note with it: 200 μM total LA and D2-LA at different ratios. The method, then:
FIG. 9. […] Wild-type, yeast Q-less coq3, or respiratory deficient cor1 null mutants were incubated in the presence of 200 μM of LA and D2-LA at different ratios of PUFAs. Serial dilutions (1:5) starting at 0.2 OD/ml were spotted on YPD solid plate medium. A zero-time untreated control is shown on the top left. Growth at 30° C.
FIG. 10. […] Serial dilutions (1:5) starting at 0.2 OD/ml were spotted on YPD solid plate medium. Growth at 30° C.
Wild-type, yeast Q-less coq3, or respiratory deficient cor1 null mutants were incubated in the presence of 200 μM of LA and D2-LA at different ratios of PUFAs, as indicated in FIG. 9. Serial dilutions (1:5) starting at 0.2 OD/ml were spotted on YPD solid plate medium. […] Growth was at 30° C.
Serial dilutions (1:5) starting at 0.2 OD/ml were spotted on YPD solid plate medium. Growth was at 30° C.

The next series relates to Wild-type yeast cells. Nature of the series: C11-Bodipy 581/591 lipid peroxidation in copper-stressed yeast. It counts as cell-based, S. cerevisiae. The note with it: 200 μM fatty acid 2 hours, then 50 μM CuSO4 60 min. The method, then: Wild-type yeast cells were treated as described above except the yeast were treated with 200 μM of the designated fatty acid for 2 hours, washed with sterile water, and were either not treated (triangles) or treated with 50 μM CuSO4 (squares) at room temperature. After 60 min of copper treatment cells were treated with 8 μM C11-Bodipy 581/591 for 30 min at room temperature. Four 100 μl aliquots were plated in a 96-well plate and the fluorescence was measured.

In series [3] the test system is stroke-prone spontaneously hypertensive (SHRSP) rat. Put plainly: SHRSP rat model of hypertension. It counts as in vivo. The following applies: SHRSP rats, 8 weeks. The text has this:
The stroke-prone spontaneously hypertensive (SHRSP) rat model of hypertension, which has been previously described (McIntyre et al., 1997 Hypertension 30:1517; Alexander et al., 1999 Cardiovasc. Res. 43:798; Fennell et al., 2002 Gene Ther. 9:110), can be used for the assessment of a compound's ability to mitigate hypertension.

For a further series, the system named is rat hearts. Nature of the series: Langendorf isolated heart perfusion model, echo- and electrocardiography. It counts as in vivo. The note with it: rats, 8 weeks supplementation. As for the experimental part:
Test compounds disclosed herein can also be assessed using the Langendorf isolated heart perfusion model. […] Following the treatment period, rat hearts are analyzed by echocardiography for measurement of muscle thickness of the left ventricle, left atrium, right ventricle, and right atrium and electrocardiography for measuring electrical activity. After live evaluation, rats are humanely sacrificed and their hearts isolated and connected to the Langendorf isolated perfusion system (See Jennings et al., Am. Surg. 2004; 70(9), 797-800). Left ventricular pressure is then measured with a left ventricular balloon. Coronary flow is also measured. Cardiac function is further assessed by determining the effect of administration of test compounds on the rate of contraction and relaxation of the heart. To determine whether any observed effects on cardiac function are due to the effect of the test compound on mitochondrial function, mitochondrial activity pre-ischemia and post-ischemia is assessed for each of the treatment groups.

As for `[2H]C([2H])(/C=C\CCCCC)/C=C\CCCCCCCC(=O)O` [D2-LA, 11,11-Dideutero-cis,cis-9,12-Octadecadienoic acid], the “rate of oxidation, ROX” value in series [1] (0.71 M in chlorobenzene, 40 mM AMVN, 37° C.) was 1.8e-07 M/s. Further, the “kinetic isotope effect (KIE) from comparison of ROX for LA and D2-LA” value in series [1] (chlorobenzene, 37° C.) was “≈ 35”. The “length of the kinetic chain, ROX/RIN” value in series [1] (for D2-LA assuming RIN comparable to that of LA) was “≈ 1.1”. The “effect during oxidation of mixture with non-deuterated methyl linoleate” value in series [2] (data not shown) is listed as “qualitatively similar effect”. In series [2] (mixtures of D2-LA and LA), the “effect on autoxidation of non-deuterated LA in mixture” value is on record as “‘protects’ the non-deuterated LA against autoxidation”. For the same compound, the “sufficiently minimal amount to cancel the toxicity of LA” value with Q-less coq3 yeast was 10-15%. For the same compound, the “levels of lipid peroxidation (C11-Bodipy fluorescence)” value with Wild-type yeast cells is given as “lower levels of lipid peroxidation similar to yeast not treated with PUFA”. Also, the systolic blood pressure entry in series [3] is listed as “reduction in systolic blood pressure”. Also, the “symptoms and markers associated with cardiac disorders” value in the series with rat hearts was “reduce symptoms and markers associated with cardiac disorders”.
